Measured values published in the Deep4Chem optical property database.
Several values for one entry are separate records, joined by “and”; a condition that tells them apart may be missing. Equal entries are not always repeated.

Assay: solvent given as SMILES
[1] = in O=P(c1ccccc1)(c1ccccc1)c1ccc2oc3ccc(P(=O)(c4ccccc4)c4ccccc4)cc3c2c1

CCN(CC)c1ccc2cc(-c3nc4c5cccc6ccc7cccc(c7c65)c4n3-c3ccc(C(C)(C)C)cc3)c(=O)oc2c1
fluorescence lifetime (in ClCCl): 11.4 ns

Cc1cc(=O)oc2cc(/[NH+]=C/C=C3/C=C(C(=O)O)NC(C(=O)O)C3)ccc12 (configuration not stated)
fluorescence lifetime (in O): 0.038 ns

Cc1cc(=O)oc2ccc3ccc(O)cc3c12
fluorescence lifetime (in CC#N): 5.6 ns

F[B-]1(F)OC(c2ccc(Br)cc2)=Cc2c3ccccc3c3ccccc3[n+]21
fluorescence lifetime (in ClC(Cl)Cl): 0.436 ns

O=C(c1ccc(N2c3ccccc3Oc3ccccc32)cc1)c1ccc(N2c3ccccc3Oc3ccccc32)cc1
fluorescence lifetime (in c1cc(-n2c3ccccc3c3ccccc32)cc(-n2c3ccccc3c3ccccc32)c1): 23 ns

Cc1cc(C)c2c(c1)c1cc(C)cc(C)c1n2-c1ccc2c(c1)Oc1cc3c(cc1B2c1c(C(C)C)cc(C(C)C)cc1C(C)C)B(c1c(C(C)C)cc(C(C)C)cc1C(C)C)c1ccccc1O3
fluorescence lifetime (in Cc1ccccc1): 21 ns | fluorescence lifetime [1]: 25 ns

CN(C)c1ccc(C#Cc2ccc(-c3nc(C#N)c(C#N)n3C)cc2)cc1
fluorescence lifetime (in C1CCCCC1): 1.2 ns | fluorescence lifetime (in ClC(Cl)Cl): 1.7 ns

CCc1c(C)[nH]c(C2=[N+]3C(=C(C)c4c(C)c(CC)c(C)n4[B-]3(F)F)c3ccccc32)c1C
fluorescence lifetime (in ClCCl): 6.21 ns

CC(C)(C)c1ccc2c(c1)c1cc(C(C)(C)C)ccc1n2-c1ccc(C(=CC#N)c2ccc(-n3c4ccc(C(C)(C)C)cc4c4cc(C(C)(C)C)ccc43)cc2)cc1
fluorescence lifetime (in Cc1ccccc1): 3.86 ns

CCOC(=O)CN1C(=O)C2=C(c3ccccc3)N(CC(=O)OCC)C(=O)C2=C1c1ccccc1
fluorescence lifetime (in CC#N): 6.7 ns | fluorescence lifetime (in CS(C)=O): 7.34 ns | fluorescence lifetime (in Cc1ccccc1): 5.93 ns

O=Cc1cnc(-c2c3ccccc3cc3ccccc23)nc1
fluorescence lifetime (in CCO): 2.3 ns | fluorescence lifetime (in ClCCl): 6.3 ns

CC[n+]1c(C=C2C(=O)C(C=C3N(C)c4ccccc4C3(C)C)=C2[O-])[se]c2ccccc21
fluorescence lifetime (in CO): 0.41 ns | fluorescence lifetime (in ClC(Cl)Cl): 2.44 ns

Nc1ccc2c(c1)-c1ccccc1C2=O
fluorescence lifetime (in CC#N): 5.9 ns | fluorescence lifetime (in c1ccccc1): 11 ns

COC(=O)c1cc(=O)n(C)c2cc(-c3ccc4c(c3)OCCO4)sc12
fluorescence lifetime (in ClCCl): 2.15 ns

CC1=CC(C)=[N+]2C1=Cc1cccn1[B-]2(F)F
fluorescence lifetime (in CCCCCC): 6.21 ns | fluorescence lifetime (in CO): 6.34 ns | fluorescence lifetime (in ClCCl): 5.89 ns

O=c1oc2ccccc2cc1/C=C/c1ccc([N+](=O)[O-])cc1
fluorescence lifetime (in CC#N): 0.08 ns

Cn1c(=O)c(/N=N/c2ccc(Nc3ccc([N+](=O)[O-])cc3S(=O)(=O)O)cc2)c(O)c2ccccc21
fluorescence lifetime (in CS(C)=O): 0.03 ns

COc1ccc(-c2ccc3c(c2)[Si](C)(C)c2cc(-c4ccc(OC)cc4)ccc2C=C3)cc1
fluorescence lifetime (in ClCCl): 1.4 ns

CCCCCCN1C(=O)c2cccc3c(-c4ccc(-c5cccs5)s4)ccc(c23)C1=O
fluorescence lifetime (in ClC(Cl)Cl): 0.564 ns

COC(=O)C(NC(=O)OC(C)(C)C)c1ccc2oc(-c3cc(OC)ccc3OC)nc2c1 (configuration not stated)
fluorescence lifetime (in CC1CCCCC1): 1.93 ns | fluorescence lifetime (in CC#N): 2.03 ns | fluorescence lifetime (in CO): 2.03 ns

CN(C)c1ccc(C#Cc2ccc(C#Cc3ccc(C#Cc4ccccc4C#N)cc3C#N)cc2C#N)cc1
fluorescence lifetime (in C1CCOC1): 1.7 ns | fluorescence lifetime (in CC#N): 1.66 ns | fluorescence lifetime (in CN(C)C=O): 1.86 ns | fluorescence lifetime (in ClC(Cl)Cl): 1.78 ns | fluorescence lifetime (in c1ccccc1): 1.74 ns

c1ccc(C2=Nc3cccc4[n+]3[B-](c3ccccc3)(N2)NC(c2ccccc2)=N4)cc1
fluorescence lifetime (in ClCCl): 2.5 ns

c1ccc(N(c2ccccc2)c2ccc(-c3ccc(-c4ccc(-c5ccc(-c6ccc(N(c7ccccc7)c7ccccc7)cc6)s5)c5nsnc45)s3)cc2)cc1
fluorescence lifetime (in ClC(Cl)Cl): 5.13 ns

COc1cccc(OC)c1C1=C2C(C)=CC(C)=[N+]2[B-](F)(F)n2c(C)cc(C)c21
fluorescence lifetime (in C1CCOC1): 5.77 ns | fluorescence lifetime (in CCCCCC): 6.26 ns

CC(C)(C)c1ccc2c(c1)c1cc(C(C)(C)C)ccc1n2-c1ccc(C#Cc2ccc(C=C(C#N)C#N)cc2)cc1
fluorescence lifetime (in ClCCl): 4.2 ns

c1ccc([B-]2(c3ccccc3)Oc3ccc4ccccc4c3-c3c4ccccc4cc[n+]32)cc1
fluorescence lifetime (in Cc1ccccc1): 9.47 ns

COc1ccc(/C=C/C2=CC(/C=C/c3ccc(OC)cc3)=[O+][B-](OC(C)=O)(OC(C)=O)O2)cc1
fluorescence lifetime (in C1CCOC1): 2.38 ns | fluorescence lifetime (in CC#N): 2.09 ns | fluorescence lifetime (in CC(C)=O): 2.29 ns | fluorescence lifetime (in CS(C)=O): 2.26 ns | fluorescence lifetime (in Cc1ccccc1): 2.45 ns | fluorescence lifetime (in ClC(Cl)Cl): 2.52 ns | fluorescence lifetime (in ClCCl): 2.63 ns

N#Cc1nc2c3ccc(N(c4ccccc4)c4ccccc4)cc3c3cc(N(c4ccccc4)c4ccccc4)ccc3c2nc1C#N
fluorescence lifetime (in O=P(c1ccccc1)(c1ccccc1)c1cccc(-c2cc(-n3c4ccccc4c4ccccc43)cc(-n3c4ccccc4c4ccccc43)c2)n1): 13.4 ns

c1ccc(-c2oc(-c3ccccc3)c3ccccc23)cc1
fluorescence lifetime (in CCO): 4.72 ns | fluorescence lifetime (in CN(C)C=O): 5.08 ns | fluorescence lifetime (in CS(C)=O): 5.3 ns

C(=C\c1ccccn1)/c1ccc(N(c2ccc(/C=C/c3ccccn3)cc2)c2ccc(-c3nc4ccccc4nc3-c3ccc(N(c4ccc(/C=C/c5ccccn5)cc4)c4ccc(/C=C/c5ccccn5)cc4)cc3)cc2)cc1
fluorescence lifetime (in C1CCOC1): 1.17 ns

CC(C)c1ccc2ccc3cccc4ccc1c2c34
fluorescence lifetime (in CCCCCC): 50.6 ns | fluorescence lifetime (in CO): 149 ns | fluorescence lifetime (in ClCCl): 77.8 ns

COC(=O)CC1(C(=O)OC)Oc2c(c(C(C)=O)c3c(c2C(C)=O)OCO3)O1
fluorescence lifetime (in CC#N): 22.4 ns

CCCCCCn1c2cc(/C=C(\C#N)c3cccs3)ccc2c2ccc(/C=C(\C#N)c3cccs3)cc21
fluorescence lifetime (in ClC(Cl)Cl): 0.56 ns

Cc1cc(=O)oc2cc3c(cc12)c1c2ccccc2c2ccccc2c1c1c2ccccc2c2ccccc2c31
fluorescence lifetime (in ClC(Cl)Cl): 10.7 ns

O=S(=O)([O-])c1ccc([O-])c2ccccc12
fluorescence lifetime (in O): 15 ns

COc1ccc(C(=Cc2ccc(C=O)cc2)c2ccc(OC)cc2)cc1
fluorescence lifetime (in C1CCOC1): 6.7 ns

CCCCCCCCN1C(=O)c2ccc3c4c(-c5ccc6c7ccccc7n(-c7ccccc7)c6c5)cc5c6c(cc(-c7ccc8c9ccccc9n(-c9ccccc9)c8c7)c(c7ccc(c2c37)C1=O)c64)C(=O)N(CCCCCCCC)C5=O
fluorescence lifetime (in ClC(Cl)Cl): 13.2 ns

CC\C=C/C=C/C=C/C=C\CCCCCCCC(=O)O
fluorescence lifetime (in C1COCCO1): 3.2 ns | fluorescence lifetime (in CCCCCC): 4.5 ns | fluorescence lifetime (in CCCCCCCCCC): 5.2 ns | fluorescence lifetime (in CCCCO): 2.5 ns | fluorescence lifetime (in CCOCC): 5.1 ns | fluorescence lifetime (in CO): 1.3 ns | fluorescence lifetime (in ClC(Cl)Cl): 1.5 ns

O=Cc1ccc2c(c1)c1ccccc1n2-c1ccc(-c2ccc(-n3c4ccccc4c4cc(C=O)ccc43)cc2)cc1
fluorescence lifetime (in ClCCl): 1 ns

CC1(C)c2ccccc2N(c2ccc(-c3ccc(C#N)cc3)cc2)c2ccccc21
fluorescence lifetime (in N#Cc1ccc2c(c1)c1ccccc1n2-c1cccc(-n2c3ccccc3c3ccccc32)c1): 6.99 ns

COc1ccccc1-c1nc(-c2ccccc2)c2ccccn12
fluorescence lifetime (in CC#N): 7.5 ns

O=C([O-])c1ccccc1C1=c2cc3c4c(c2Oc2c1cc1c5c2CCCN5CCC1)CCC[N+]=4CCC3
fluorescence lifetime (in CC#N): 5.25 ns | fluorescence lifetime (in CC(C)O): 4.36 ns | fluorescence lifetime (in CCCCCCCCO): 4.17 ns | fluorescence lifetime (in CCCCCCO): 4.27 ns | fluorescence lifetime (in CCCCO): 4.3 ns | fluorescence lifetime (in CCCO): 4.3 ns | fluorescence lifetime (in CCO): 4.74 ns | fluorescence lifetime (in CN(C)C=O): 4.78 ns | fluorescence lifetime (in CO): 4.59 ns | fluorescence lifetime (in O): 4.91 ns | fluorescence lifetime (in [2H]O[2H]): 4.8 ns

CCC1=C(C)C2=C(C)c3c(I)c(I)cn3[B-](F)(F)[N+]2=C1C
fluorescence lifetime (in C1CCCCC1): 0.259 ns | fluorescence lifetime (in CC(C)=O): 0.127 ns | fluorescence lifetime (in CCO): 0.125 ns | fluorescence lifetime (in CCOC(C)=O): 0.16 ns | fluorescence lifetime (in CO): 0.122 ns | fluorescence lifetime (in OCC(F)(F)F): 0.147 ns

Cc1ccc(C)cc1
fluorescence lifetime (in C1CCCCC1): 47 ns

C(#Cc1ccc(C#Cc2ccccc2)cc1)c1ccccc1
fluorescence lifetime (in ClC(Cl)Cl): 2.57 ns

CC1=CC2=Nc3nc(C)[n+](C)cc3CN2C=C1
fluorescence lifetime (in CC#N): 5.45 ns | fluorescence lifetime (in CCO): 5.31 ns | fluorescence lifetime (in O): 5.23 ns

C(=C\c1ccc(N(c2ccccc2)c2ccccc2)cc1)/c1ccccc1
fluorescence lifetime (in CC#N): 1.37 ns | fluorescence lifetime (in CCCCCC): 0.51 ns

CN(C)c1ccc2nc(-c3ccc(C(=O)OC(C)(C)C)cc3)sc2c1
fluorescence lifetime (in C1CCCCC1): 2.2 ns

O=c1cccc2n1C[C@@H]1CNC[C@H]2C1
fluorescence lifetime (in CC#N): 0.289 ns

Nc1ccc2c(C(F)(F)F)cc(=O)oc2c1
fluorescence lifetime (in C1CCC2CCCCC2C1): 1.9 ns | fluorescence lifetime (in C1CCCCC1): 1.2 ns | fluorescence lifetime (in C1COCCO1): 4.65 ns | fluorescence lifetime (in CC1CCCCC1): 1.22 ns | fluorescence lifetime (in CC#N): 5.2 ns and 5.13 ns | fluorescence lifetime (in CC(C)=O): 4.97 ns | fluorescence lifetime (in CC(C)O): 5.28 ns | fluorescence lifetime (in CCC(C)CC): 0.842 ns | fluorescence lifetime (in CCCC(C)C): 0.406 ns | fluorescence lifetime (in CCCCCC): 0.854 ns | fluorescence lifetime (in CCCCCCCCO): 5.4 ns | fluorescence lifetime (in CCCCCCO): 5.29 ns | fluorescence lifetime (in CCCCO): 5.24 ns | fluorescence lifetime (in CCO): 5.38 ns | fluorescence lifetime (in CCOC(C)=O): 4.67 ns | fluorescence lifetime (in CN(C)C=O): 5.22 ns | fluorescence lifetime (in CO): 5.31 ns | fluorescence lifetime (in CS(C)=O): 5 ns

N#Cc1cc2ccc(cc2)c2cccc3cccc(c4ccc(cc4)cc(C#N)c4ccc(cc4)c4cccc5cccc(c6ccc1cc6)c54)c32
fluorescence lifetime (in Cc1ccccc1): 20.6 ns

CCN(CC)c1ccc2c(c1)oc(=O)c1cc3c(-c4ccccc4)nn(-c4ccccc4)c3nc12
fluorescence lifetime (in ClCCl): 17.9 ns

CC1(C)CC(/N=C/c2ccc3ccc4cccc5ccc2c3c45)CC(C)(C)N1[O]
fluorescence lifetime (in C1CCCCC1): 8.3 ns | fluorescence lifetime (in CO): 2.1 ns

c1ccc(N(c2ccccc2)c2ccc(N(c3ccccc3)c3ccc4ccc5c(N(c6ccccc6)c6ccc(N(c7ccccc7)c7ccccc7)cc6)ccc6ccc3c4c65)cc2)cc1
fluorescence lifetime (in ClCCl): 2.7 ns

N#CC(C#N)=C(c1ccc(-n2ccc3ccccc32)cc1)c1ccc(-n2ccc3ccccc32)cc1
fluorescence lifetime (in Cc1ccccc1): 5.2 ns

Cc1ccc2c(c1)C1(c3ccccc3-c3ccccc31)c1cc(C)ccc1N2c1ccc(-c2nc(-c3ccccc3)cc(-c3ccccc3)n2)cc1
fluorescence lifetime [1]: 12 ns

CCN(CC)c1ccc2c(c1)oc(=O)c1c(C)nc3c(cnn3-c3ccccc3)c12
fluorescence lifetime (in ClCCl): 2.72 ns

CCCCCCN1C(=O)c2cccc3cc(/N=C\c4ccc(N(c5ccccc5)c5ccccc5)cc4)cc(c23)C1=O
fluorescence lifetime (in ClC(Cl)Cl): 15.4 ns

ClC(Cl)=C1c2ccccc2C(C2(Cl)c3ccccc3C(=C(Cl)Cl)c3ccccc32)c2ccccc21 (configuration not stated)
fluorescence lifetime (in C1CCCCC1): 10.4 ns | fluorescence lifetime (in CCCCCO): 16 ns | fluorescence lifetime (in CCCCO): 12.6 ns | fluorescence lifetime (in CCCO): 11.9 ns | fluorescence lifetime (in CCO): 11.7 ns | fluorescence lifetime (in CO): 11.2 ns
